Data set [1] is described as follows: Hydrophobicity by RP-HPLC. It is filed as physicochemical. The settings on record: RP-HPLC retention time, analytical C2 column, CH3CN/H2O gradient. On the procedure: Peptide synthesis, lipid moiety conjugation, and fluorescent labeling. Peptides were synthesized on Rink Amide MBHA resin by using the F-moc strategy. Several peptides contain a lysine residue at their C-terminus with an MTT side-chain protecting group (Nova-biochem AG, Switzerland) that requires a special deprotection step under mild acidic conditions (2×1 min of 5% trifluoroacetic acid (TFA) in dichloromethane (DCM) and 30 min of 1% TFA in DCM). This enables the conjugation of a lipid moiety or a fluorescent probe to the C-terminus. The chemical synthesis schemes of the following compounds 1-5 are described in FIG. 6. Conjugation of hexadecanoic (palmitic) acid (C16) or α-Tocopherol succinate (Sigma Chemical Co., Israel) to the N-terminus of selected peptides (compound 2 and compound 4, respectively) was performed using standard F-moc chemistry. Conjugation of cholesterol to the N-terminus of a peptide (compound 3) was performed by adding 10 equivalents of cholesteryl chloroformate (Alfa Aesar, USA) dissolved in DCM, together with 3 equivalents of triethyl amine to the peptides' resin. Conjugation of D-erythro-Dihydrosphingosine (D-erythro sphinganine), (Matreya, LCC, USA) to the N- or C-terminus of a peptide (compound 1) was performed as followed: first, 10 equivalents of N,N′-Disuccinimidyl carbonate (DSC) (Chem-Impex Internatinal, USA) and 20 equivalents of N,N-Diisopropylethylamine (DIEA) were added to the resin for 2 hours in dimethylformamide (DMF). Then, 2 equivalents of sphinganine and 2 equivalents of DIEA were added for overnight incubation in DMF anhydrous. The conjugation of D-erythro-Sphingosine (Matreya, LCC, USA) to the peptides (compound 5) was performed as described for compound 1. Addition of NBD-F, fluoride (4-fluoro-7-nitrobenzofurazan) (NBD) fluorescent probe (Biotium, USA) to the N- or C-terminus of selected peptides was performed in DMF for 1 hour. All peptides were cleaved from the resin by a TFA:DDW:TES (93.1:4.9:2 (v/v)) mixture, and purified by reverse-phase high-performance liquid chromatography (RP-HPLC) to >95% homogeneity. The molecular weight of the peptides was confirmed by platform LCA electrospray mass spectrometry. For hydrophobicity tests the peptides were eluted with a flow rate of 0.6 ml/min using a two-step linear gradient from CH3CN/H2O 20:80 v/v to CH3CN/H2O 95:5 v/v in 30 min and from CH3CN/H2O 95:5 v/v to CH3CN/H2O 95:5 in 10 min v/v on an analytical C2 column (7 μm particle size, pore size 100 Å) from Nucleosil.
Hydrophobicity (min): Hydrophobicity was analyzed by RP-HPLC. The retention time of each compound is presented.

Data set [2] is described as follows: Secondary structure determination by circular dichroism. Type of data set: physicochemical. The following applies: percentage of α-helical structure, CD, 10 μM peptide in HEPES buffer 5 mM pH 7.4, 25° C. On the procedure: Secondary structure determination. Circular Dichroism (CD) measurements were performed by using an AppliedPhoto physics spectropolarimeter. The spectra were scanned using a thermostatic quartz cuvette with a path length of 1 mm. Wavelength scans were performed at 25° C.; the average recording time was 15 sec, in 1-nm steps, in the wavelength range of 190-260 nm. Each peptide concentration was 10 μM in HEPES buffer (5 mM, pH 7.4).
Helicity (%): The percentage of α-helical structure was determined as described in the section of Materials and Methods.
(CD spectra are sensitive to the conformation of chiral molecules.)

For data set [3], the system named is fully infectious HIV-1 HXB2.
Where [4] appears, read: fully infectious HIV-1 system (Table 2).
Setting [5] is: read-out: Virus-cell fusion IC50, TZM-bl cells infected with fully contagious HIV, mean±s.d., n=3.
The mark [6] stands for this setting: read-out: IC50 (inhibitory concentration at 50% infectivity), TZM-bl cells, fully contagious HXB2 HIV-1.

Like-named read-outs stand apart in the source and are kept apart here. Starred links: 1 amine or outer side, 2 acyl side, 3 side chain; linkers in the order of their positions; H or OH if unused. Residues, ends and D or L forms follow the SMILES beside them. Groups on a side chain read outwards from the residue. *: point of attachment. Cholesteryloxycarbonyl = CC(C)CCC[C@@H](C)[C@H]1CC[C@H]2[C@@H]3CC=C4C[C@@H](OC(=O)*)CC[C@]4(C)[C@H]3CC[C@]12C; Sphinganine = CCCCCCCCCCCCCCC[C@@H](O)[C@H](CO)N*; X2 = CCCCCCCCCCCCC/C=C/[C@@H](O)[C@H](CO)N*; CO = O=C([*:1])[*:2]

On to `CC[C@H](C)[C@H](NC(=O)CNC(=O)[C@H](Cc1c[nH]c2ccccc12)NC(=O)[C@@H](NC(=O)[C@@H](NC(=O)[C@H](CC(C)C)NC(=O)[C@H](CCC(N)=O)NC(=O)[C@H](CC(C)C)NC(=O)[C@H](CC(C)C)NC(=O)O[C@H]1CC[C@@]2(C)C(=CC[C@H]3[C@@H]4CC[C@H]([C@H](C)CCCC(C)C)[C@@]4(C)CC[C@@H]32)C1)[C@@H](C)O)C(C)C)C(=O)N[C@@H](CCCCN)C(=O)N[C@@H](CCC(N)=O)C(=O)N[C@@H](CC(C)C)C(=O)N[C@@H](CCC(N)=O)C(=O)N[C@@H](C)C(=O)N[C@@H](CCCNC(=N)N)C(=O)N[C@H](C(=O)N[C@@H](CC(C)C)C(N)=O)[C@@H](C)CC` [Cholesterol-N17] (Cholesteryloxycarbonyl-LLQLTVWGIKQLQARIL-NH2), for which the “Hydrophobicity” value in data set [1] came to 28.9 min. In addition, the “Helicity (%)” value in data set [2] was below 10%. Besides, the IC50 in data set [3] (setting [4]) and in data set [3] (setting [5]) was above 4000 nM each time.
As to `CC[C@H](C)[C@H](NC(=O)CNC(=O)[C@H](Cc1c[nH]c2ccccc12)NC(=O)[C@@H](NC(=O)[C@@H](NC(=O)[C@H](CC(C)C)NC(=O)[C@H](CCC(N)=O)NC(=O)[C@H](CC(C)C)NC(=O)[C@@H](N)CC(C)C)[C@@H](C)O)C(C)C)C(=O)N[C@@H](CCCCN)C(=O)N[C@@H](CCC(N)=O)C(=O)N[C@@H](CC(C)C)C(=O)N[C@@H](CCC(N)=O)C(=O)N[C@@H](C)C(=O)N[C@@H](CCCNC(=N)N)C(=O)N[C@H](C(=O)N[C@@H](CC(C)C)C(N)=O)[C@@H](C)CC` [N17, LLQLTVWGIKQLQARIL] (H-LLQLTVWGIKQLQARIL-NH2; C-terminus assumed), the “Hydrophobicity” value in data set [1] was 18.2 min. Also, the “Helicity (%)” value in data set [2] came out at 20%. Further, the IC50 in data set [3] (setting [4]) and in data set [3] (setting [5]) was above 4000 nM throughout. In addition, in data set [3] (up to 4 μM, the maximal concentration tested), the “Inhibiting viral infectivity (in words)” value is “not active”.
In data set [3] (setting [4]), `CCCCCCCCCCCCCCC[C@@H](O)[C@H](CO)NC(=O)N[C@@H](CCC(N)=O)C(=O)N[C@@H](CCCCN)C(=O)N[C@H](C(=O)N[C@@H](C)C(=O)N[C@@H](CCCNC(=N)N)C(=O)N[C@@H](CC(C)C)C(=O)N[C@@H](CCC(N)=O)C(=O)N[C@H](C(=O)N[C@@H](CC(C)C)C(=O)N[C@@H](Cc1c[nH]c2ccccc12)C(=O)N[C@@H](CC(C)C)C(=O)N[C@@H](CCC(N)=O)C(=O)N[C@H](C(=O)NCC(=O)N[C@H](C(=O)N[C@@H](CC(C)C)C(=O)N[C@@H](CC(C)C)C(N)=O)C(C)C)[C@@H](C)CC)[C@@H](C)O)[C@@H](C)CC` [Sphing-N17 scrambled] ({Sphinganine-CO}-QKIARLQTLWLQIGVLL-NH2) yielded an IC50 above 4000 nM.
On to `CCCCCCCCCCCCCCC[C@@H](O)[C@H](CO)NC(=O)N[C@@H](CC(C)C)C(=O)N[C@@H](CC(C)C)C(=O)N[C@@H](CCC(N)=O)C(=O)N[C@@H](CC(C)C)C(=O)N[C@H](C(=O)N[C@H](C(=O)N[C@@H](Cc1c[nH]c2ccccc12)C(=O)NCC(=O)N[C@H](C(=O)N[C@@H](CCCCN)C(=O)N[C@@H](CCC(N)=O)C(=O)N[C@@H](CC(C)C)C(=O)N[C@@H](CCC(N)=O)C(=O)N[C@@H](C)C(=O)N[C@@H](CCCNC(=N)N)C(=O)N[C@H](C(=O)N[C@@H](CC(C)C)C(=O)N[C@@H](CCCCN)C(N)=O)[C@@H](C)CC)[C@@H](C)CC)C(C)C)[C@@H](C)O` [Sphing-N17K, Sphinganine-LLQLTVWGIKQLQARILK] ({Sphinganine-CO}-LLQLTVWGIKQLQARILK-NH2), for which the IC50 was determined as 118 ± 18 nM in data set [3] (setting [4]) and 116 nM in data set [3] (setting [6]).
`CCCCCCCCCCCCCCC[C@@H](O)[C@H](CO)NC(=O)N[C@@H](CC(C)C)C(=O)N[C@@H](CCC(=O)O)C(=O)N[C@@H](CCC(N)=O)C(=O)N[C@@H](CC(C)C)C(=O)N[C@@H](CO)C(=O)N[C@H](C(=O)N[C@@H](Cc1c[nH]c2ccccc12)C(=O)NCC(=O)N[C@@H](CO)C(=O)N[C@@H](CCCCN)C(=O)N[C@@H](CCC(N)=O)C(=O)N[C@@H](CC(N)=O)C(=O)N[C@@H](CCC(N)=O)C(=O)N[C@@H](C)C(=O)N[C@@H](CCCNC(=N)N)C(=O)N[C@@H](CCCNC(=N)N)C(=O)N[C@@H](CC(C)C)C(N)=O)C(C)C` [Sphing-N17mut (a, d)] ({Sphinganine-CO}-LEQLSVWGSKQNQARRL-NH2) showed an IC50 in data set [3] (setting [4]) above 4000 nM.
In data set [3] (setting [4]), `CCCCCCCCCCCCCCC[C@@H](O)[C@H](CO)NC(=O)N[C@@H](CCC(=O)O)C(=O)N[C@@H](CC(C)C)C(=O)N[C@@H](CCC(N)=O)C(=O)N[C@@H](CC(C)C)C(=O)N[C@H](C(=O)N[C@@H](CCC(N)=O)C(=O)N[C@@H](Cc1c[nH]c2ccccc12)C(=O)N[C@@H](CCCCN)C(=O)N[C@H](C(=O)N[C@@H](CCCCN)C(=O)N[C@@H](CCC(N)=O)C(=O)N[C@@H](CC(C)C)C(=O)N[C@@H](CC(C)C)C(=O)N[C@@H](C)C(=O)N[C@@H](CCCNC(=N)N)C(=O)N[C@H](C(=O)N[C@@H](CC(C)C)C(=O)N[C@@H](CCCCN)C(N)=O)[C@@H](C)CC)[C@@H](C)CC)[C@@H](C)O` [Sphing-N17mut (e, g) K, Sphinganine-ELQLTQWKIKQLLARILK] ({Sphinganine-CO}-ELQLTQWKIKQLLARILK-NH2) displayed an IC50 of 120 ± 30 nM.
Still for that read-out and setting: the result for `CCCCCCCCCCCCCCC[C@@H](O)[C@H](CO)NC(=O)N[C@@H](CC(C)C)C(=O)N[C@@H](CCC(N)=O)C(=O)N[C@@H](C)C(=O)N[C@@H](CCCNC(=N)N)C(=O)N[C@H](C(=O)N[C@@H](CC(C)C)C(=O)N[C@@H](C)C(=O)N[C@H](C(=O)N[C@@H](CCC(=O)O)C(=O)N[C@@H](CCCNC(=N)N)C(=O)N[C@@H](Cc1ccc(O)cc1)C(=O)N[C@@H](CC(C)C)C(=O)N[C@@H](CCCCN)C(=O)N[C@@H](CC(=O)O)C(=O)N[C@@H](CCC(N)=O)C(=O)N[C@@H](CCC(N)=O)C(=O)N[C@@H](CC(C)C)C(N)=O)C(C)C)[C@@H](C)CC` [Sphing-ShN17, Sphinganine-LQARILAVERYLKDQQL] ({Sphinganine-CO}-LQARILAVERYLKDQQL-NH2) reads 886 ± 102 nM.
Consider `CCCCCCCCCCCCC/C=C/[C@@H](O)[C@H](CO)NC(=O)N[C@@H](CC(C)C)C(=O)N[C@@H](CC(C)C)C(=O)N[C@@H](CCC(N)=O)C(=O)N[C@@H](CC(C)C)C(=O)N[C@H](C(=O)N[C@H](C(=O)N[C@@H](Cc1c[nH]c2ccccc12)C(=O)NCC(=O)N[C@H](C(=O)N[C@@H](CCCCN)C(=O)N[C@@H](CCC(N)=O)C(=O)N[C@@H](CC(C)C)C(=O)N[C@@H](CCC(N)=O)C(=O)N[C@@H](C)C(=O)N[C@@H](CCCNC(=N)N)C(=O)N[C@H](C(=O)N[C@@H](CC(C)C)C(N)=O)[C@@H](C)CC)[C@@H](C)CC)C(C)C)[C@@H](C)O` [Sphingosine-N17, Sphingosine-LLQLTVWGIKQLQARIL] ({X2-CO}-LLQLTVWGIKQLQARIL-NH2), for which the IC50 in data set [3] (setting [6]) turned out to be 208 nM.
`CCCCCCCCCCCCCCC[C@@H](O)[C@H](CO)NC(=O)NCCCC[C@H](NC(=O)[C@@H](NC(=O)[C@H](CCC(=O)O)NC(=O)[C@H](CCCNC(=N)N)NC(=O)[C@H](CC(=O)O)NC(=O)[C@H](Cc1c[nH]c2ccccc12)NC(=O)[C@H](CCC(=O)O)NC(=O)[C@H](CCSC)NC(=O)[C@H](Cc1c[nH]c2ccccc12)NC(=O)[C@@H](N)[C@@H](C)O)[C@@H](C)CC)C(N)=O` [Truncated-Sphing, TWMEWDREIK-Sphinganine] (H-TWMEWDREIK([CO-Sphinganine])-NH2; N-terminus assumed): the IC50 in data set [3] (read-out: IC50 (nM), […], fully infectious HIV-1 system (Table 3)) was determined as 1330 ± 270 nM. The concentration for an effect of 90% (IC90) in data set [3] (read-out: IC90 (nM), […], fully infectious HIV-1 system (Table 3)) was determined as 2480 ± 320 nM.
For the compound `CCCCCCCCCCCCCCC[C@@H](O)[C@@H](N)CO` [sphinganine, D-erythro-Dihydrosphingosine, reference compound], the “Effect on viral infectivity / fusion (in words)” value in data set [3] (at / up to 1 μM) is listed as “did not affect viral infectivity”.

Usually IC90 stands for the concentration at which the effect reaches the 90% level.
